Reference: patent publication EP4656179A1, “COMPOSITION CONTAINING STREPTOCOCCUS SP. STRAIN FOR PREVENTION, ALLEVIATION, OR TREATMENT OF SKIN DISEASES” (Cosmax, Inc., priority 2023, dated 2024)

Tests used:
Type in all cases: cell-based, human
Settings in all cases: HaCaT cells, IFN-γ 10 ng/mL; 1, 10, and 100 ppm; 24 hours; GAPDH as standard
IL-31 = test: Marker gene expression in IFN-γ atopic dermatitis cell model (HaCaT), real-time PCR: IL-31
Method: (§1) To verify the effect of the Cyclo(Gly-Pro) of alleviating atopic dermatitis, an in vitro efficacy evaluation was conducted.
(§2) First, human keratinocytes, HaCaT cells, were purchased from the American Type Culture Collection (ATCC; Manassas, VA, USA) and cultured in DMEM (HyClone, Logan, UT, USA) supplemented with 10 % FBS (HyClone) and 1 % antibiotic-antimycotic solution (Welgene, Daegu, Korea). The cells were maintained at 37 °C in a 5 % CO2 incubator. After isolating the cells using trypsinization, 4 x 10^5 cells were added to each well of a 6-well plate. After 1 day of cell attachment, the culture was replaced with a serum-free medium and treated with IFN-γ (Sigma Aldrich, St. St. Louis, MO, USA) at a concentration of 10 ng/mL to induce an environment similar to atopic dermatitis. As a positive control group, 1 µM dexamethasone (Sigma Aldrich) was used. As experimental groups, the cells were treated with Cyclo(Gly-Pro) (Biosynth Ltd, Berkshire, UK) at concentrations of 1, 10, and 100 ppm. […]
(§3) The cDNA amplification was performed by 40 cycles of amplification, wherein each cycle has the following conditions: 50 °C for 2 minutes, 95 °C for 10 minutes, 40 cycles of 95°C for 10 seconds, and 60°C for 1 minute. GAPDH was used as an ISTD material, and the mRNA expression levels were expressed as relative values compared to the negative control group. […]

filaggrin (FLG) = test: Marker gene expression in IFN-γ atopic dermatitis cell model (HaCaT), real-time PCR: filaggrin
Method: as §1, §2, §3

IL-13 = test: Marker gene expression in IFN-γ atopic dermatitis cell model (HaCaT), real-time PCR: IL-13
Method: as §1, §2, §3

IL-22 = test: Marker gene expression in IFN-γ atopic dermatitis cell model (HaCaT), real-time PCR: IL-22
Method: as §1, §2, §3

CCL17 = test: Marker gene expression in IFN-γ atopic dermatitis cell model (HaCaT), real-time PCR: CCL17
Method: as §1, §2, §3

sIL-2R = test: Marker gene expression in IFN-γ atopic dermatitis cell model (HaCaT), real-time PCR: sIL-2R
Method: as §1, §2, §3

CCL22 = test: Marker gene expression in IFN-γ atopic dermatitis cell model (HaCaT), real-time PCR: CCL22
Method: as §1, §2, §3

Compound: O=C1NCC(=O)N2CCCC12 (stereo not shown) [Cyclo(Gly-Pro), hexahydropyrrolo[1,2-a]pyrazine-1,4-dione]
- relative expression levels of IL-31 (IL-31): decreased
- relative expression levels of filaggrin (FLG) (filaggrin (FLG)): increased
- relative expression levels of IL-13 (IL-13): decreased
- relative expression levels of IL-22 (IL-22): decreased
- relative expression levels of CCL17 (CCL17): decreased
- relative expression levels of sIL-2R (sIL-2R): decreased
- relative expression levels of CCL22 (CCL22): decreased
